Experimental data from patent US20240067693A1, “POLYPEPTIDES AND USES THEREOF” (MEDIMMUNE LIMITED, priority 2020, published 2024).
Numbered stars: 1 amine (or outer) side, 2 acyl side, 3 side chain; on linkers, the order of the positions; unused ones are H or OH. Bridge positions count the residues as written; N and C are the ends. Square brackets hold non-standard residues; d marks the D form. Side chains are listed from the residue outwards. Peptide text beside a SMILES is read from it. * marks the point of attachment. C20 diacid = O=C(O)CCCCCCCCCCCCCCCCCCC(=O)*; C18 diacid = O=C(O)CCCCCCCCCCCCCCCCC(=O)*; γGlu = O=C(O)[C@H](CCC(=O)[*:2])N[*:1]; Hyp = O=C(O)[C@@H]1C[C@@H](O)CN1; Dab = NCC[C@H](N)C(=O)O; Aib = CC(C)(N)C(=O)O

Legend:
[1] = target: T1, human amylin receptor (calcitonin receptor co-expressed with receptor activity modifying protein, RAMP3) (hAMYR3) (Homo sapiens, UniProt O60896+P30988); experiment: cAMP production in 1321N1 cells with stable recombinant expression of human amylin receptor (hAMYR3); format: cell-based; conditions: for Ratio (selectivity hAMYR vs hCTR, ratio of EC50 values at the two receptors): EC50 hCTR / EC50 hAMYR3; for EC50: cAMP, 1321N1 cells, assay buffer with 0.1% BSA, read-out: EC50 (pM) hAMYR3
T1 construct: expressed in transfected cells
T1 sequence (P30988 25-474): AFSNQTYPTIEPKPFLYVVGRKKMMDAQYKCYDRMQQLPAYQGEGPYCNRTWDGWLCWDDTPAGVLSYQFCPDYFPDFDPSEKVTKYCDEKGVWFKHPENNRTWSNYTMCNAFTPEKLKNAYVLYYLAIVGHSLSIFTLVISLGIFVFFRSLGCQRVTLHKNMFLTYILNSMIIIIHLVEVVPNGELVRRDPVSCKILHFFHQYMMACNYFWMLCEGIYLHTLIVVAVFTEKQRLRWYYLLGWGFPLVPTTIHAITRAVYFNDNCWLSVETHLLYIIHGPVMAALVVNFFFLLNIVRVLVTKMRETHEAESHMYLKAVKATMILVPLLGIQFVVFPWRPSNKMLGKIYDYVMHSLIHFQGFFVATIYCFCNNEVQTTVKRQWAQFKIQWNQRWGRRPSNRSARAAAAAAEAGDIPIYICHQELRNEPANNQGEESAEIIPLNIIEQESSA
T1 sequence (O60896 24-148 partner): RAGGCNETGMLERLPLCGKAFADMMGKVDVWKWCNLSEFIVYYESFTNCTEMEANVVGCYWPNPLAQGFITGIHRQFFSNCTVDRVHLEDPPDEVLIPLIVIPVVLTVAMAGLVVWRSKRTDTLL
Method in brief: (§1)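 Receptor-expressing cells (human receptors in 1321N1, rat receptors in HEK) incubated 30 min at room temperature with peptide in HBSS/HEPES pH 7.4, 0.1% BSA, 0.5 mM IBMX. cAMP read by HTRF; EC50 from 4-parameter fit as % of maximal amylin or calcitonin response.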

[2] = target: T2, human calcitonin receptor (hCTR) (Homo sapiens, UniProt P30988); experiment: cAMP production in 1321N1 cells with stable recombinant expression of human calcitonin receptor (hCTR); format: cell-based; conditions: cAMP, 1321N1 cells, assay buffer with 0.1% BSA; read-out: EC50 (pM) hCTR
T2 construct: expressed in transfected cells
T2 sequence (P30988 25-474): T1 sequence (P30988 25-474)
Method in brief: as §1

Ratio (selectivity hAMYR vs hCTR, ratio of EC50 values at the two receptors) [1] | EC50 [1] | EC50 [2] | SMILES
5 | 403 pM | 1880 pM | CC[C@H](C)[C@H](NC(=O)[C@@H]1CCCN1C(=O)CNC(=O)[C@H](Cc1ccccc1)NC(=O)[C@H](Cc1c[nH]cn1)NC(=O)[C@H](CC(N)=O)NC(=O)[C@H](CO)NC(=O)[C@H](CO)NC(=O)[C@H](Cc1c[nH]cn1)NC(=O)[C@@H](NC(=O)[C@H](CC(C)C)NC(=O)[C@H](Cc1ccccc1)NC(=O)[C@H](CC(N)=O)NC(=O)[C@H](C)NC(=O)[C@H](CC(C)C)NC(=O)[C@H](CCCNC(=N)N)NC(=O)[C@H](CCC(N)=O)NC(=O)[C@@H](NC(=O)[C@H](C)NC(=O)[C@@H]1CSSC[C@H](NC(=O)[C@H](CCCCN)NC(=O)[C@@H](N)CCCCNC(=O)CC[C@H](NC(=O)CCCCCCCCCCCCCCCCC(=O)O)C(=O)O)C(=O)N[C@@H](CC(N)=O)C(=O)N[C@@H]([C@@H](C)O)C(=O)N[C@@H](C)C(=O)N[C@@H]([C@@H](C)O)C(=O)N1)[C@@H](C)O)C(C)C)C(=O)N[C@@H](CC(C)C)C(=O)N1CCC[C@H]1C(=O)N1CCC[C@H]1C(=O)N[C@H](C(=O)N[C@@H](CC(N)=O)C(=O)N[C@H](C(=O)NCC(=O)N[C@@H](CO)C(=O)N[C@@H](CCC(=O)O)C(=O)N[C@H](C(=O)N[C@@H](Cc1ccc(O)cc1)C(N)=O)[C@@H](C)O)C(C)C)[C@@H](C)O [Peptide 111] (H-K([γGlu-C18 diacid])KCNTATCATQRLANFLVHSSNHFGPILPPTNVGSETY-NH2; disulfide 3-8; N-terminus assumed)
2 | 417 pM | 792 pM | CC[C@H](C)[C@H](NC(=O)[C@H](CO)NC(=O)[C@H](Cc1c[nH]cn1)NC(=O)[C@@H](NC(=O)[C@H](CC(C)C)NC(=O)[C@H](Cc1ccccc1)NC(=O)[C@H](CC(N)=O)NC(=O)[C@H](C)NC(=O)[C@H](CC(C)C)NC(=O)[C@H](CCCNC(=N)N)NC(=O)[C@H](CCC(N)=O)NC(=O)[C@@H](NC(=O)[C@H](C)NC(=O)[C@@H]1CSSC[C@H](NC(=O)[C@@H](N)CCCCNC(=O)CC[C@H](NC(=O)CC[C@H](NC(=O)CCCCCCCCCCCCCCCCCCC(=O)O)C(=O)O)C(=O)O)C(=O)N[C@@H](CC(N)=O)C(=O)N[C@@H]([C@@H](C)CC)C(=O)N[C@@H](C)C(=O)N[C@@H]([C@@H](C)O)C(=O)N1)[C@@H](C)O)C(C)C)C(=O)N[C@@H](C)C(=O)N[C@@H](CC(N)=O)C(=O)N[C@@H](Cc1ccccc1)C(=O)NCC(=O)N1CCC[C@H]1C(=O)N[C@H](C(=O)N[C@@H](CC(C)C)C(=O)N1CCC[C@H]1C(=O)N1CCC[C@H]1C(=O)N[C@H](C(=O)N[C@@H](CC(N)=O)C(=O)N[C@H](C(=O)NCC(=O)N[C@@H](CO)C(=O)N[C@@H](CCCNC(=N)N)C(=O)N[C@H](C(=O)N[C@@H](Cc1ccc(O)cc1)C(N)=O)[C@@H](C)O)C(C)C)[C@@H](C)O)[C@@H](C)CC [Peptide 118] (H-K([γGlu-γGlu-C20 diacid])CNIATCATQRLANFLVHSIANFGPILPPTNVGSRTY-NH2; disulfide 2-7; N-terminus assumed)
24 | 1460 pM | 34700 pM | CC[C@H](C)[C@H](NC(=O)[C@H](C)NC(=O)[C@@H]1CCCN1C(=O)[C@H](Cc1ccccc1)NC(=O)[C@H](CC(N)=O)NC(=O)[C@@H]1CCCN1C(=O)[C@@H]1CCCN1C(=O)[C@H](CO)NC(=O)[C@H](Cc1c[nH]cn1)NC(=O)[C@@H](NC(=O)[C@H](CC(C)C)NC(=O)[C@H](Cc1ccccc1)NC(=O)[C@H](CC(N)=O)NC(=O)[C@H](C)NC(=O)[C@H](CC(C)C)NC(=O)[C@H](CCCNC(=N)N)NC(=O)[C@H](CCC(N)=O)NC(=O)[C@@H](NC(=O)[C@H](C)NC(=O)[C@@H]1CSSC[C@H](NC(=O)[C@@H](N)CCCCNC(=O)CC[C@H](NC(=O)CC[C@H](NC(=O)CCCCCCCCCCCCCCCCCCC(=O)O)C(=O)O)C(=O)O)C(=O)N[C@@H](CC(N)=O)C(=O)N[C@@H]([C@@H](C)O)C(=O)N[C@@H](C)C(=O)N[C@@H]([C@@H](C)O)C(=O)N1)[C@@H](C)O)C(C)C)C(=O)N[C@@H](CC(C)C)C(=O)N[C@@H](CO)C(=O)N1CCC[C@H]1C(=O)N[C@H](C(=O)N[C@@H](CC(N)=O)C(=O)N[C@H](C(=O)NCC(=O)N[C@@H](CO)C(=O)N[C@@H](CC(N)=O)C(=O)N[C@H](C(=O)N[C@@H](Cc1ccc(O)cc1)C(N)=O)[C@@H](C)O)C(C)C)[C@@H](C)O [Peptide 119] (H-K([γGlu-γGlu-C20 diacid])CNTATCATQRLANFLVHSPPNFPAILSPTNVGSNTY-NH2; disulfide 2-7; N-terminus assumed)
5 | 1330 pM | 6070 pM | CC[C@H](C)[C@H](NC(=O)[C@H](C)NC(=O)[C@@H]1C[C@@H](O)CN1C(=O)[C@H](Cc1ccccc1)NC(=O)[C@H](CC(N)=O)NC(=O)C(C)(C)NC(=O)[C@H](CO)NC(=O)[C@H](CO)NC(=O)[C@H](Cc1c[nH]cn1)NC(=O)[C@@H](NC(=O)[C@H](CC(C)C)NC(=O)[C@H](Cc1ccccc1)NC(=O)[C@H](CC(N)=O)NC(=O)[C@H](C)NC(=O)[C@H](CC(C)C)NC(=O)[C@H](CCCNC(=N)N)NC(=O)[C@H](CCC(N)=O)NC(=O)[C@@H](NC(=O)[C@H](C)NC(=O)[C@@H]1CSSC[C@H](NC(=O)[C@@H](N)CCCCNC(=O)CC[C@H](NC(=O)CC[C@H](NC(=O)CCCCCCCCCCCCCCCCCCC(=O)O)C(=O)O)C(=O)O)C(=O)N[C@@H](CC(N)=O)C(=O)N[C@@H]([C@@H](C)O)C(=O)N[C@@H](C)C(=O)N[C@@H]([C@@H](C)O)C(=O)N1)[C@@H](C)O)C(C)C)C(=O)N[C@@H](CC(C)C)C(=O)N[C@@H](CO)C(=O)N1CCC[C@H]1C(=O)N[C@H](C(=O)N[C@@H](CC(N)=O)C(=O)N[C@H](C(=O)NCC(=O)N[C@@H](CO)C(=O)N[C@@H](CC(N)=O)C(=O)N[C@H](C(=O)N[C@@H](Cc1ccc(O)cc1)C(N)=O)[C@@H](C)O)C(C)C)[C@@H](C)O [Peptide 121, K(γE-γE-C20diacid)[CNTATC]ATQRLANFLVHSS(Aib)NF(Hyp)AILSPTNVGSNTY-amide] (H-K([γGlu-γGlu-C20 diacid])CNTATCATQRLANFLVHSS[Aib]NF[Hyp]AILSPTNVGSNTY-NH2; disulfide 2-7; N-terminus assumed)
9 | 655 pM | 6180 pM | CC[C@H](C)[C@H](NC(=O)[C@H](C)NC(=O)[C@@H]1CCCN1C(=O)[C@H](Cc1ccccc1)NC(=O)[C@H](CC(N)=O)NC(=O)C(C)(C)NC(=O)[C@H](CO)NC(=O)[C@H](CO)NC(=O)[C@H](Cc1c[nH]cn1)NC(=O)[C@@H](NC(=O)[C@H](CC(C)C)NC(=O)[C@H](Cc1ccccc1)NC(=O)[C@H](CC(N)=O)NC(=O)[C@H](C)NC(=O)[C@H](CC(C)C)NC(=O)[C@H](CCCNC(=N)N)NC(=O)[C@H](CCC(N)=O)NC(=O)[C@@H](NC(=O)[C@H](C)NC(=O)[C@@H]1CSSC[C@H](NC(=O)[C@@H](N)CCCCNC(=O)CC[C@H](NC(=O)CC[C@H](NC(=O)CCCCCCCCCCCCCCCCC(=O)O)C(=O)O)C(=O)O)C(=O)N[C@@H](CC(N)=O)C(=O)N[C@@H]([C@@H](C)O)C(=O)N[C@@H](C)C(=O)N[C@@H]([C@@H](C)O)C(=O)N1)[C@@H](C)O)C(C)C)C(=O)N[C@@H](CC(C)C)C(=O)N[C@@H](CO)C(=O)N1CCC[C@H]1C(=O)N[C@H](C(=O)N[C@@H](CCN)C(=O)N[C@H](C(=O)NCC(=O)N[C@@H](CO)C(=O)N[C@@H](CC(N)=O)C(=O)N[C@H](C(=O)N[C@@H](Cc1ccc(O)cc1)C(N)=O)[C@@H](C)O)C(C)C)[C@@H](C)O [Peptide 122, K(γE-γE-C18diacid)[CNTATC]ATQRLANFLVHSS(Aib)NFPAILSPT(Dab)VGSNTY-amide] (H-K([γGlu-γGlu-C18 diacid])CNTATCATQRLANFLVHSS[Aib]NFPAILSPT[Dab]VGSNTY-NH2; disulfide 2-7)
